According to patent US4544747A, “Quinoline carboxylic acid derivatives” (Otsuka Pharmaceutical Company, Limited, priority 1979, dated 1985):
In brackets after ≈: the same amount, converted by molar mass.

What was measured:
[1] = system: Phytophthora capsici; experiment: Antimicrobial-activity test 2, mycelial disc on agar plate, fungi (J: leaf blight of cucumber); format: cell-based; settings: 48 h, complete inhibition of mycelial growth, 2 days, PDA medium, read-out: Minimum inhibitory concentration
Excerpt: J: Leaf blight of cucumber (Phytophthora capsici)

[2] = system: Mycosphaerella melonis; experiment: Antimicrobial-activity test 2, mycelial disc on agar plate, fungi (M: gummy stem blight of melon); format: cell-based; settings: 48 h, complete inhibition of mycelial growth, 2 days, PDA medium, read-out: Minimum inhibitory concentration
Excerpt: […] blight of melon (Mycosphaerella melonis)

[3] = system: Erwinia carotovora (soft-rot causing bacterium); experiment: Antimicrobial-activity test 3, incidence of soft rot on inoculated Japanese radish disks; settings: 28° C.
[4] = system: Helminthosporium oryzae; experiment: Antimicrobial-activity test 2, mycelial disc on agar plate, fungi (H: Helminthosporium leaf spot); settings: Bipolaris oryzae, 48 h, read-out: Minimum inhibitory concentration
[5] = system: Colletotrichum lagenarium; experiment: Antimicrobial-activity test 2, mycelial disc on agar plate, fungi (K: anthracnose of cucumber); format: cell-based; settings: Colletotrichum orbiculare, 48 h, complete inhibition of mycelial growth, 2 days, PDA medium, read-out: Minimum inhibitory concentration
Excerpt: K: Anthracnose of cucumber (Colletotrichum lagenarium)

[6] = system: Erwinia carotovora; experiment: Antimicrobial-activity test 2, agar dilution plate method, bacteria (A: soft rot of vegetable); format: cell-based; settings: Pectobacterium carotovorum, 10^8 cells/ml, PDA medium, read-out: Minimum inhibitory concentration
Excerpt: A: Soft rot of vegetable (Erwinia carotovora)

[7] = system: Pseudomonas solanacearum; experiment: microbe, parasite or virus in culture; format: cell-based; settings: Ralstonia solanacearum, read-out: Minimum inhibitory concentration
[8] = system: Xanthomonas oryzae; experiment: microbe, parasite or virus in culture; format: cell-based; settings: read-out: Minimum inhibitory concentration
[9] = system: Pyrisularia oryzae; experiment: microbe, parasite or virus in culture; format: cell-based; settings: Pyricularia oryzae, 48 h, read-out: Minimum inhibitory concentration
[10] = system: Sclerotinia sclerotiorum; experiment: Antimicrobial-activity test 2, mycelial disc on agar plate, fungi (L: stem rot of eggplant); format: cell-based; settings: 48 h, complete inhibition of mycelial growth, 2 days, PDA medium, read-out: Minimum inhibitory concentration
Excerpt: L: Stem rot of eggplant (Sclerotinia sclerotiorum)

[11] = system: Xanthomonas pruni; experiment: Antimicrobial-activity test 2, agar dilution plate method, bacteria (C: peach bacterial spot); format: cell-based; settings: Xanthomonas arboricola, 10^8 cells/ml, PDA medium, read-out: Minimum inhibitory concentration
Excerpt: C: Peach bacterial spot (Xanthomonas pruni)

[12] = system: Phytophthora melonis; experiment: microbe, parasite or virus in culture; format: cell-based; settings: 48 h, read-out: Minimum inhibitory concentration
[13] = system: Pseudomonas lachrymans; experiment: Antimicrobial-activity test 2, agar dilution plate method, bacteria (F: angular leaf spot of cucumber); format: cell-based; settings: 10^8 cells/ml, PDA medium, read-out: Minimum inhibitory concentration
Excerpt: F: Angular leaf spot of cucumber (Pseudomonas lachrymans)

[14] = system: rats; experiment: Acute toxicity test, oral, rats; settings: rats (Wister strain, male)
[15] = system: Xanthomonas citri; experiment: Antimicrobial-activity test 2, agar dilution plate method, bacteria (D: citrus canker); settings: read-out: Minimum inhibitory concentration
[16] = system: Alternaria solani; experiment: Antimicrobial-activity test 2, mycelial disc on agar plate, fungi (N: early blight of tomato); format: cell-based; settings: 48 h, complete inhibition of mycelial growth, 2 days, PDA medium, read-out: Minimum inhibitory concentration
Excerpt: N: Early blight of tomato (Alternaria solani)

[17] = 15.6 μg/ml, test specimen 1, 24 hours
[18] = 15.6 μg/ml, test specimen 2, 24 hours
[19] = 15.6 μg/ml, test specimen 3, 24 hours
[20] = 15.6 μg/ml, test specimen 4, 24 hours
[21] = 15.6 μg/ml, test specimen 5, 24 hours
[22] = 31.3 μg/ml, test specimen 1, 24 hours
[23] = 31.3 μg/ml, test specimen 2, 24 hours
[24] = 31.3 μg/ml, test specimen 3, 24 hours
[25] = 31.3 μg/ml, test specimen 4, 24 hours
[26] = 31.3 μg/ml, test specimen 5, 24 hours
[27] = 62.5 μg/ml, test specimen 1, 24 hours
[28] = 62.5 μg/ml, test specimen 2, 24 hours
[29] = 62.5 μg/ml, test specimen 3, 24 hours
[30] = 62.5 μg/ml, test specimen 4, 24 hours
[31] = 62.5 μg/ml, test specimen 5, 24 hours
[32] = 125 μg/ml, test specimen 1, 24 hours
[33] = 125 μg/ml, test specimen 2, 24 hours
[34] = 125 μg/ml, test specimen 3, 24 hours
[35] = 125 μg/ml, test specimen 4, 24 hours
[36] = 125 μg/ml, test specimen 5, 24 hours

For CCn1cc(C(=O)O)c(=O)c2ccc(Cl)c(C)c21 [Compound 2, 1-ethyl-7-chloro-8-methyl-4-oxo-1,4-dihydroquinoline-3-carboxylic acid], the MIC [1] was 25 µg/mL (≈ 94.1 µM), the MIC [2] was 50 µg/mL (≈ 188 µM) and the Disease incidence index [3, 17] was 0 (0). The Disease incidence index [3, 18] was 1 (0< ≤1/3), the Disease incidence index [3, 19] was 1 (0< ≤1/3) and the Disease incidence index [3, 20] was 1 (0< ≤1/3). The Disease incidence index [3, 21] was 1 (0< ≤1/3), the Disease incidence index [3, 22] was 0 (0) and the Disease incidence index [3, 23] was 0 (0). For the same molecule, the Disease incidence index [3, 24] was 0 (0), the Disease incidence index [3, 25] was 1 (0< ≤1/3) and the Disease incidence index [3, 26] was 1 (0< ≤1/3). For the same molecule, the Disease incidence index [3, 27] was 0 (0), the Disease incidence index [3, 28] was 0 (0) and the Disease incidence index [3, 29] was 0 (0). The Disease incidence index [3, 30] was 0 (0), the Disease incidence index [3, 31] was 1 (0< ≤1/3) and the Disease incidence index [3, 32] was 0 (0). For the same molecule, the Disease incidence index [3, 33] was 0 (0), the Disease incidence index [3, 34] was 0 (0) and the Disease incidence index [3, 35] was 0 (0). The Disease incidence index [3, 36] was 1 (0< ≤1/3), the MIC [4] was 50 µg/mL (≈ 188 µM) and the MIC [5] was 100 µg/mL (≈ 376 µM). The MIC [6] was 0.2 µg/mL (≈ 0.753 µM), the MIC [7] was 0.1 µg/mL (≈ 0.376 µM) and the MIC [8] was 0.2 µg/mL (≈ 0.753 µM). It also gave an MIC [9] of 50 µg/mL (≈ 188 µM), an MIC [10] of 100 µg/mL (≈ 376 µM) and an MIC [11] of 0.4 µg/mL (≈ 1.51 µM). For the same molecule, the MIC [12] was 12.5 µg/mL (≈ 47 µM), the MIC [13] was 100 µg/mL (≈ 376 µM) and the “estimated LD50” value [14] was “not less than 500 mg/kg”. The MIC [15] was 0.1 µg/mL (≈ 0.376 µM) and the MIC [16] was 50 µg/mL (≈ 188 µM).

[H]/N=C(/N)N[C@H]1[C@H](O)[C@@H](O)[C@H](O[C@@H]2O[C@@H](C)[C@](O)(C=O)[C@H]2O[C@@H]2O[C@@H](CO)[C@H](O)[C@@H](O)[C@@H]2NC)[C@@H](N/C(N)=N\[H])[C@@H]1O [Streptomycin, reference compound] was tested, and the Disease incidence index [3, 17] was 3, the Disease incidence index [3, 18] was 3 and the Disease incidence index [3, 19] was 3. It also gave a Disease incidence index [3, 20] of 3, a Disease incidence index [3, 21] of 3 and a Disease incidence index [3, 22] of 2. For the same molecule, the Disease incidence index [3, 23] was 2, the Disease incidence index [3, 24] was 3 and the Disease incidence index [3, 25] was 3. For the same molecule, the Disease incidence index [3, 26] was 3, the Disease incidence index [3, 27] was 1 (0< ≤1/3) and the Disease incidence index [3, 28] was 1 (0< ≤1/3). It also gave a Disease incidence index [3, 29] of 2, a Disease incidence index [3, 30] of 2 and a Disease incidence index [3, 31] of 2. The Disease incidence index [3, 32] was 1 (0< ≤1/3), the Disease incidence index [3, 33] was 1 (0< ≤1/3) and the Disease incidence index [3, 34] was 1 (0< ≤1/3). The Disease incidence index [3, 35] was 1 (0< ≤1/3) and the Disease incidence index [3, 36] was 1 (0< ≤1/3).

In the case of CCn1cc(C(=O)O)c(=O)c2ccc(N3CCNCC3)c(C)c21 [Compound 1, 1-Ethyl-7-(1-piperazinyl)-8-methyl-4-oxo-1,4-dihydroquinoline-3-carboxylic acid], the “estimated LD50” value [14] is reported as “not less than 500 mg/kg”.
